Measured values published in patent US20020003114A1, “Partially halogenated hydantoins in papermaking applications” (Lonza Inc.;, priority 2000, published 2002).

Tests used:
[1] = system: organisms native to the white water; assay: Bactericidal efficacy of slimicides in paper mill white water; type: cell-based; details: Table 8
Method: White water was obtained from a Northeastern paperboard mill. The pH of the white water was about 6.5-7.5. The consistency of the white water was typically 0.1-0.2%. The furnish pulp was approximately 50% mixed, 15% chip, 15% corrugated, and 15% newspaper. The white water contained the sizing alkyl ketene dimer (AKD). The test organisms were those native to the white water.
The slimicide was added at a concentration of from about 15 to about 20 ppm (expressed as Cl2) to the white water. The white water was then incubated for 3 hours at 37° C. The test conditions were based on ASTM E 600-91 and ASTM E 1839-96. Bacterial counts were performed using tryptone glucose extract agar by known pour plate techniques. DIFCO D/E Neutralizing Broth was used as the first serial dilution tube for biocide neutralization.
The bactericidal efficacy of each slimicide in Table 6 was determined according to the procedure described in Example 2, except the incubation time was 30 minutes instead of 3 hours and the initial concentration of slimicide was about 20 ppm (expressed as Cl2).
The bactericidal efficacy rate of each slimicide was determined by dividing the observed log reduction in the bacterial count by the 30 minute contact time. The bactericidal efficacy rate at 2 ppm of slimicide (expressed as C2) was extrapolated from the results for 20 ppm of slimicide (expressed as Cl2) by assuming a first order behavior. […]
The bactericidal efficacy and bacterial efficacy rate of each slimicide in Table 8 below was determined according to the procedure described in Example 5.
The bactericidal efficacy of each slimicide in Table 10 was determined according to the procedure described in Example 2, except the initial concentration of slimicide was about 10 ppm (expressed as Cl2).
The microbiocidal efficacy rate of each slimicide was determined by dividing the observed log reduction in the bacterial count by the 180 minute contact time. The efficacy rate at 2 ppm of slimicide (expressed as Cl2) was extrapolated from the results for 10 ppm of slimicide (expressed as Cl2) by assuming a first order behavior. […]

[2] = Oxidant (halogen) loss rate with performance additive A-PAM; type: physicochemical
Method: (§1) 125 mL solutions containing 2.0 ppm (expressed total halogen as Cl2) of Cl0.9-5,5-dimethyl hydantoin, Dantochlor®, sodium hypochlorite, Dantobrom®, or sodium hypobromite and a performance additive described in Table 4 were prepared by mixing the appropriate amounts of the ingredients in tap water at a temperature of about 37° C. and a pH of about 8.
(§2) The degeneration of the performance additives tested was determined by measuring the residual oxidant (halogen) concentrations of the solutions over time as follows. The tests were performed in a water bath maintained at 37° C. and an orbital shaker in order to keep the performance additives dispersed in the solutions. Aliquots were taken at regular intervals over a 30 minute period and measured for residual slimicide concentrations using the standard diethyl-p-phenylene diamine (DPD) methodology described in Palin, A. T., Chemistry and Control of Modem Chlorination, La Motte Chemical (1973). The oxidant (halogen) loss rates were determined from first order linear regression plots of the residual oxidant (halogen) concentrations over time.
(§3) The ratio of bactericidal efficacy to oxidant loss rate was calculated for the slimicides and performance additives in Table 7 based on the results in Tables 5 and 6 above. […]

[3] = Oxidant (halogen) loss rate with performance additive PAE; type: physicochemical
Method: as §1, §2, §3

[4] = Oxidant (halogen) loss rate with performance additive C-PAM; type: physicochemical
Method: as §1, §2, §3

[5] = Oxidant (halogen) loss rate with performance additive C-Starch; type: physicochemical
Method: as §1, §2, §3

[6] = Oxidant (halogen) loss rate with performance additive AKD; type: physicochemical
Method: as §1, §2, §3

[7] = Table 9, extrapolated rate at 2 ppm (Table 8) divided by oxidant loss rate (Table 5)

## [Na+].[O-]Br [NaOBr, Sodium hypobromite]
[1]; 20 ppm slimicide, log reduction divided by 30 minute contact time
  Bactericidal Efficacy Rate (log cfu/ml reduction per minute): 0.002 log cfu/ml reduction per minute
[1]; extrapolated from 20 ppm to 2 ppm assuming first order (one-tenth)
  Extrapolated Bactericidal Efficacy Rate (at 2 ppm of Slimicide) (log cfu/ml reduction per minute): 0.0002 log cfu/ml reduction per minute
[1]; procedure of Example 5, slimicide about 20 ppm (as Cl2), white water, 30 minutes
  Bactericidal Efficacy (log cfu/ml reduction in 30 minutes): 0.07 log cfu/ml reduction
[2]; [7]
  Ratio of Bactericidal Efficacy Rate to Oxidant Loss Rate, A-PAM: 0.007 log cfu/ml reduction per ppm
[2]; slimicide 2.0 ppm (as Cl2), A-PAM 50 ppm active, tap water, 37° C., pH about 8, 30 minutes
  Oxidant (Halogen) Loss Rate, A-PAM: 0.029 ppm/min
[3]; [7]
  Ratio of Bactericidal Efficacy Rate to Oxidant Loss Rate, PAE: 0.002 log cfu/ml reduction per ppm
[3]; slimicide 2.0 ppm (as Cl2), PAE 100 ppm active, tap water, 37° C., pH about 8, 30 minutes
  Oxidant (Halogen) Loss Rate, PAE: 0.103 ppm/min
[4]; [7]
  Ratio of Bactericidal Efficacy Rate to Oxidant Loss Rate, C-PAM: 0.008 log cfu/ml reduction per ppm
[4]; slimicide 2.0 ppm (as Cl2), C-PAM 4 ppm active, tap water, 37° C., pH about 8, 30 minutes
  Oxidant (Halogen) Loss Rate, C-PAM: 0.025 ppm/min
[5]; [7]
  Ratio of Bactericidal Efficacy Rate to Oxidant Loss Rate, C-Starch: 0.02 log cfu/ml reduction per ppm
[5]; slimicide 2.0 ppm (as Cl2), C-Starch 100 ppm active, tap water, 37° C., pH about 8, 30 minutes
  Oxidant (Halogen) Loss Rate, C-Starch: 0.010 ppm/min
[6]; [7]
  Ratio of Bactericidal Efficacy Rate to Oxidant Loss Rate, AKD: 0.07 log cfu/ml reduction per ppm
[6]; slimicide 2.0 ppm (as Cl2), AKD 10 ppm active, tap water, 37° C., pH about 8, 30 minutes
  Oxidant (Halogen) Loss Rate, AKD: 0.003 ppm/min
